Results published in patent publication US6958318B2, “Recombinant bacterial cells for delivery of PNP to tumor cells” (The UAB Research Foundation, priority 1993, dated 2005).
“And” between values parts separate entries of the source, which are not always exact repeats. Identical values can stand only once. “Also recorded” adds a separate entry of the source. Like-named read-outs stand apart in the source and are kept apart here.

Experiments:
[1] = biological target: E. coli PNP (Escherichia coli, UniProt P0ABP8); format: biochemical
Sequence of E. coli PNP (P0ABP8 2-239): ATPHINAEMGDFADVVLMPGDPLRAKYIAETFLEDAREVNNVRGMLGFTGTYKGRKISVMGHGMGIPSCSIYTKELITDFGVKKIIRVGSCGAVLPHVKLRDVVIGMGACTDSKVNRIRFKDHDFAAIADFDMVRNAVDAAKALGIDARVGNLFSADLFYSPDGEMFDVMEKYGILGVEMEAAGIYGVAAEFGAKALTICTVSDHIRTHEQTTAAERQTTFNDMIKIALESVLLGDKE

[2] = biological target: T1, human PNP (Homo sapiens, UniProt P00491); assay: Cleavage of purine analog nucleosides by human PNP (HPLC); format: biochemical; conditions: for Percent of substrate cleaved by Human PNP, 1 mM: substrate 1 mM
T1 sequence (P00491 1-289): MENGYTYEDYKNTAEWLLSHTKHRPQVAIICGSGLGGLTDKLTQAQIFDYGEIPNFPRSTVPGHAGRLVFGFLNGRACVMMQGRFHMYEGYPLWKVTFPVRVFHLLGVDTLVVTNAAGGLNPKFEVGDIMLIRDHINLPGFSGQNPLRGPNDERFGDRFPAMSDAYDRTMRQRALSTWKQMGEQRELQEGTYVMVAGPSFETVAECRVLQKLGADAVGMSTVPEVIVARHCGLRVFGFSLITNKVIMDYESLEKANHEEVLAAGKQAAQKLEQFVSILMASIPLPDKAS

[3] = tested on: PNP transduced tumors; format: in vivo; conditions: for Anti-tumor effect on PNP transduced tumors in mice: mouse, in vivo
[4] = tested on: 16/C-PNP tumors; assay: E. coli PNP-transduced 16/C tumors in B6C3F1 mice; format: in vivo
Method: (§1) Transduced 16/C cells were implanted in mice by subcutaneous injection of approximately 10^6 cells harvested from the cultures of stably transduced 16/C cells described above. The mice were examined visibly for tumor growth and those with developing tumors were maintained. To prepare mice for use in the in vivo experiments, the tumors were removed from mice with significant tumor growth and cut into 30-60 mg pieces. One 30-60 mg piece of the tumor was subcutaneously implanted into the subaxillary region of each female B6C3F1 mouse. The tumors were allowed to develop and mice with tumors of 100 mm^3 were used.
Six mice per group with established PNP-transduced 16/C tumors were treated with aqueous control solution, MeP-dR or F-ara AMP, as above. […] (Table III, 16/C-PNP treatment.)

[5] = tested on: wild type murine breast carcinoma cells (16/C cell line); assay: Wild-type 16/C tumors in nude mice; format: in vivo; conditions: FIG. 6
Method: For studies conducted with nu/nu mice, cells obtained from stable cultures of transduced cell lines were injected subcutaneously into the right or left flank of the mice. Mice with visible tumor growth were used for further studies. For the administration of purine prodrug, mice were administered MeP-dR or F-araAMP by IP injection.
Four to five nude (nu/nu) mice per group were inoculated with wild type murine breast carcinoma cells (16/C cell line), or PNP transduced 16/C cells. Mice with established tumors (approximately 100 mm^3) were treated with MeP-dR (100 mg/kg/d IP×3 d) or F-araAMP (100 mg/kg/IP 3 id×3 d).

[6] = tested on: D54-PNP tumors; assay: E. coli PNP-transduced D54 glioma tumors in nude mice; format: in vivo; conditions: previous studies
Method: Female athymic nude mice (nu/nu) were implanted sc with 2×10^7 cells of either D54 parental tumor cells (D54-wt) or D54 tumor cells that had been transduced with the E. coli PNP (D54-PNP). After the tumors had grown to approximately 150 mg, they were treated ip with either vehicle or 67 mg/kg of MeP-dR (IP) once a day for 3 days (days 6, 7 and 8 after implantation). The tumor sizes were measured twice a week after treatment.
A confirmation experiment was set up exactly as described above, except that animals were treated with two doses of MeP-dR (45 and 67 mg/kg) (FIGS. 10 and 11). The results of this experiment were similar (Table V). There were 8 of 10 complete regressions in mice bearing the D54-PNP tumors that were treated with 67 mg/kg of MeP-dR. In 4 mice the tumors subsequently returned and grew. There were still 4 of 10 tumor-free survivors 60 days after the treatment had stopped. […] There were 2 of 10 complete regressions and 3 partial responses. […] The delay in the time required to double twice due to treatment with MeP-dR was 5 to 6 days in the non-transduced tumors and greater than 24 days in transduced tumors. In this experiment, the growth rate of the D54-PNP tumors was considerably slower than it was in the first experiment. There was no change in the growth rate of the D54-wt tumors. The reason for the slow growth rate of the D54-PNP tumors in this experiment is not known. […] (In other words, if a tumor was too small to measure, it was not included in the average size). This means that the overall tumor regressions in the D54 PNP group are actually much more pronounced than they appear in FIGS. 8-11.

[7] = tested on: 16/C-PNP cells; assay: 16/C-PNP tumors in athymic nude mice; conditions: 100 mg/kg IP 3 id × 3 d; monophosphate
[8] = tested on: D54 glioma tumors; assay: D54 tumors of mixed wild-type and transduced cells (80 to 20); conditions: in vivo
[9] = tested on: wild-type 16/C tumors; assay: Wild-type 16/C tumors in B6C3F1 mice; format: in vivo
Method: as §1
Six mice (B6C3F1) per group with established wild type 16/C tumors were treated with an aqueous control solution, MeP-dR (100 mg/kg IP qd×3d) or 2-fluoro-arabinofuranosyladenine monophosphate (F-araAMP) (100 mg/kg IP, […]). The wild type tumors grew rapidly in the presence or absence of either of the prodrugs. […] (Table III, Wild-type 16/C treatment).

[10] = literature; cited from earlier work
[11] = tested on: tumor cells transduced with the E. coli PNP; assay: Killing of PNP-transduced tumor cells in vitro by other prodrugs; format: cell-based
From the text: In addition to MeP-dR, two other prodrugs suitable for E. coli PNP activation in tumor cells can be applied to the methodology of the present invention. These prodrugs are F-araA and 2-F-2′deoxyadenosine. […] As desired, this dose had no effect on control untransduced, tumor cells.

[12] = substrate 100 μM, 0.1 unit/ml enzyme, 25° C., 1 hour, stopped by boiling
[13] = 25° C., 1 hour, stopped by boiling
[14] = IP for three days, MeP-dR 100, F-araAMP 500 mg/kg/day
[15] = 100 μM in the presence of 1 mM deoxycytidine

NC(=O)[C@H]1O[C@@H](n2cnc3c(N)ncnc32)[C@H](O)[C@@H]1O [5′-carboxamide of adenosine]
Substrate quality for bacterial (E. coli) PNP [1]: poor substrates
Percent of substrate cleaved by Human PNP, 100 μM [2]: 0(81) Percent and 0(82) Percent
Substrate quality for mammalian (human) PNP [2]: poor substrates

Nc1ncnc2c1ncn2[C@H]1O[C@H](CO)[C@@H](O)[C@H]1O [α-adenosine]
Substrate quality for bacterial (E. coli) PNP [1]: poorly cleaved
Percent of substrate cleaved by Human PNP, 100 μM ([2]; # line: assay terminated by filtering and not by boiling): 0(87**) Percent
Substrate quality for mammalian (human) PNP ([2]; in words): poor substrates; also recorded: not cleaved
Percent of substrate cleaved by Human PNP, 100 μM [2, 12]: 0(88) Percent and 0(86) Percent
Percent of substrate cleaved by Human PNP, 1 mM [2, 13]: 0(50) Percent and 0(47) Percent

Nc1ncnc2c1ncn2[C@H]1CC[C@@H](CO)O1 [2′,3′-dideoxy adenosine, 2′,3′-dideoxyadenosine]
Substrate quality for bacterial (E. coli) PNP [1]: poor substrates
Substrate quality for mammalian (human) PNP ([2]; in words): poor substrates

Nc1nc(F)nc2c1ncn2[C@@H]1O[C@H](COP(=O)(O)O)[C@@H](O)[C@@H]1O [F-araAMP, 2-fluoro-arabinofuranosyladenine monophosphate, reference compound]
Anti-tumor effect on PNP transduced tumors in mice [3]: in vivo regression
Complete Regressions/Total [4, 14]: 0/6
Day delay (Treated-control) [4, 14]: 3.3 days
Nonspecific Deaths/Total [4, 14]: 0/6
Delay in time for three tumor doublings, in words ([4]; p<0.01): statistically significant delay
Days for tumor to double 3 times mean/SD ([4]; tumors that completely regressed not included): 12.1 ± 1.6 days
Effect on growth of wild-type 16/C tumors [5]: only a small effect on tumor growth
Activity against D54 glioma tumors expressing the E. coli PNP gene [6]: good activity
Effect of F-araAMP on growth of 16/C tumors expressing E. coli PNP [7]: growth delay for at least ten days; also recorded: significantly inhibited the growth
Activity against tumors of wild-type and transduced cells at 80 to 20 [8]: less active
Complete Regressions/Total [9, 14]: 0/6
Day delay (Treated-control) [9, 14]: 2.7 days
Nonspecific Deaths/Total [9, 14]: 0/6
Delay in tumor growth, in words ([9]; wild type 16/C): no statistically significant delay in tumor growth

C[C@H]1O[C@@H](n2cnc3c(N)nc(F)nc32)[C@H](O)[C@@H]1O [2-F-5′-deoxyadenosine, 2-fluoro-5′-deoxyadenosine]
Substrate quality for bacterial (E. coli) PNP [1]: good substrates
Substrate quality for mammalian (human) PNP ([2]; in words): poor substrates

Nc1cc(Cl)c2ncn([C@@H]3O[C@H](CO)[C@@H](O)[C@H]3O)c2n1 [1-deaza-2-amino-6-Cl-purine-riboside, 2-amino-6-chloro-1-deazapurine riboside]
Percent of substrate cleaved by E. coli PNP, 100 μM [1]: 62(87)16(23) Percent and 41(86)15(21) Percent
Percent of substrate cleaved by E. coli PNP, 1 mM [1]: 62(87)16(23) Percent and 41(86)15(21) Percent
Substrate quality for bacterial (E. coli) PNP [1]: good substrates
Substrate quality for mammalian (human) PNP ([2]; in words): poor substrates
Percent of substrate cleaved by Human PNP, 100 μM [2, 12]: 0(88) Percent and 0(86) Percent
Percent of substrate cleaved by Human PNP, 1 mM [2, 13]: 0(52) Percent and 0(47) Percent
Toxicity of prodrug relative to its purine analog [10]: much less toxic than their respective purine analogs

Nc1nc(F)nc2c1ncn2[C@H]1C[C@H](O)[C@@H](CO)O1 [F-dAdo, 2-fluoro-2′-deoxyadenosine]
Substrate quality for bacterial (E. coli) PNP [1]: good substrates
Tolerability in mice ([3]; doses similar to MeP-dR): without toxicity
Anti-tumor effect on PNP transduced tumors in mice [3]: strong anti-tumor effects
Substrate quality for mammalian (human) PNP ([2]; in words): poor substrates
Activity against D54 glioma tumors expressing the E. coli PNP gene [6]: good activity
Killing of PNP-transduced tumor cells in vitro [11]: high level killing
Effect on control untransduced tumor cells [11, 15]: no effect
Killing when as few as 1% of tumor cells express the gene [11, 15]: kills cells transduced with the E. coli PNP
Activity against tumors of wild-type and transduced cells at 80 to 20 [8]: less active

OC[C@H]1OC(n2cnc3ncnc(S)c32)[C@H](O)[C@@H]1O (stereo partly drawn) [7-ribosyl-6-mercaptopurine]
Substrate quality for mammalian (human) PNP ([2]; in words): poor substrates

Nc1nc(F)nc2c1ncn2[C@@H]1O[C@H](CO)[C@@H](O)[C@H]1F [2-F-2′-F-2′-deoxyadenosine]
Percent of substrate cleaved by E. coli PNP, 100 μM [1]: 0(86) Percent
Percent of substrate cleaved by E. coli PNP, 1 mM [1]: 0(21) Percent
Substrate quality for bacterial (E. coli) PNP [1]: poor substrates

xylosyl methylpurine [xylosylmethylpurine]
Percent of substrate cleaved by E. coli PNP, 100 μM [1]: 0(86) Percent
Percent of substrate cleaved by E. coli PNP, 1 mM [1]: 0(21) Percent
Substrate quality for bacterial (E. coli) PNP [1]: poor substrates
Substrate quality for mammalian (human) PNP ([2]; in words): poor substrates
Percent of substrate cleaved by Human PNP, 100 μM [2, 12]: 0(88) Percent and 0(86) Percent
Percent of substrate cleaved by Human PNP, 1 mM [2, 13]: 0(50) Percent and 0(47) Percent

Nc1ncnc2c1ncn2C1OC(CO)C(O)C1O (stereo not drawn) [xylosyl adenine]
Percent of substrate cleaved by Human PNP, 100 μM [2, 12]: 0(81) Percent and 0(82) Percent

Nc1cc2ncn(C3O[C@H](CO)[C@@H](O)[C@H]3O)c2c(=O)[nH]1 (stereo partly drawn) [7-ribosyl-3-deazaguanine]
Substrate quality for bacterial (E. coli) PNP [1]: good substrates
Substrate quality for mammalian (human) PNP ([2]; in words): poor substrates
Toxicity of prodrug relative to its purine analog [10]: much less toxic than their respective purine analogs

Nc1ncnc2c1ncn2[C@@H]1O[C@H](CO)C[C@H]1O [3′-deoxy adenosine, 3′-deoxyadenosine]
Substrate quality for bacterial (E. coli) PNP [1]: poor substrates
Substrate quality for mammalian (human) PNP ([2]; in words): poor substrates

CC1(C)OC2C(C(N)=O)OC(n3cnc4c(N)ncnc43)C2O1 (stereo not drawn) [isopropylidine of the 5′-carboxamide of adenosine]
Substrate quality for bacterial (E. coli) PNP [1]: poor substrates
Percent of substrate cleaved by Human PNP, 100 μM [2]: 0(81) Percent and 0(82) Percent
Substrate quality for mammalian (human) PNP [2]: poor substrates

O=c1[nH]cnc2ncn(C3O[C@H](CO)[C@@H](O)[C@H]3O)c12 (stereo partly drawn) [7-ribosyl-hypoxanthine, 7-ribosylhypoxanthine]
Substrate quality for bacterial (E. coli) PNP [1]: moderate to good substrates
Substrate quality for mammalian (human) PNP ([2]; in words): moderate to good substrates

NC[C@H]1O[C@@H](n2cnc3c(N)ncnc32)[C@H](O)[C@@H]1O [5′-amino-5′-deoxyadenosine]
Substrate quality for bacterial (E. coli) PNP [1]: moderate substrates; also recorded: poorly cleaved
Substrate quality for mammalian (human) PNP ([2]; in words): not cleaved
Substrate quality for mammalian (human) PNP ([2]; in words, listed as 50-amino-50-deoxyadenosine): poor substrates
